Patent publication US20250101027A1, “ORGANIC COMPOUND, LIGHT-EMITTING DEVICE, LIGHT-EMITTING APPARATUS, AND ELECTRONIC APPLIANCE” (SEMICONDUCTOR ENERGY LABORATORY CO., LTD., priority 2023, published 2025)
Values after ≈ are worked out from the molar mass of the structure shown.

Assay: Solubility test in water by LC-MS analysis
Assay type: physicochemical
Conditions: for peak area value derived from the compound through the LC-MS analysis (solubility test in water): ultrasonic waves five minutes, filtrate diluted five times with acetonitrile, one atmosphere, room temperature
Protocol: Next, a solubility test of PrdP2Phen was performed. Note that the solubility test was conducted at a pressure of one atmosphere, at room temperature (RT).
In the LC-MS analysis, liquid chromatography (LC) separation was carried out with ACQUITY UPLC manufactured by Waters Corporation, and MS analysis (mass spectrometry) was carried out with Xevo G2 Tof MS manufactured by Waters Corporation. Acquity UPLC BEH C8 (2.1×100 mm, 1.7 μm) was used as a column for the LC separation. Acetonitrile was used for Mobile Phase A and a 0.1% aqueous solution of formic acid was used for Mobile Phase B. The injection amount of the sample was 5.0 μL. Note that in the analysis, the wavelength of a photodiode array detector was set to 263 nm±1 nm.
(§1) In a 5-mL sample bottle, I mg of PrdP2Phen was put and 1 mL of water was added thereto. This mixture was irradiated with ultrasonic waves for five minutes. This mixture was filtered through a membrane filter to remove the solid, and the resulting filtrate was diluted by five times with acetonitrile. The obtained solution was subjected to LC-MS analysis.
In a 5-mL sample bottle, 1 mg of Pyrrd-Phen was put and 2 mL of toluene was added thereto. This mixture was irradiated with ultrasonic waves for five minutes. After it was confirmed that the solid was completely dissolved, this solution was diluted by 5 times with acetonitrile, whereby the concentration of the solution was adjusted to 100 mg/L. This solution was diluted with a 3:7 toluene-acetonitrile mixed solvent, whereby a solution with a concentration of 20 mg/L, a solution with a concentration of 10 mg/L, and a solution with a concentration of 5 mg/L were prepared. The prepared solutions were subjected to LC-MS analysis, and the peak area values derived from Pyrrd-Phen, which were obtained at the respective solution concentrations, were used to form calibration curves.
Next, the water solubility of Pyrrd-Phen was measured.
as §1, with “bottle, 1” for “bottle, I”, “of Pyrrd-Phen” for “of PrdP2Phen”
Next, a solubility test of Hid-PrdPPhen was performed. Note that the solubility test was conducted at a pressure of one atmosphere at room temperature (RT).
In the LC-MS analysis, liquid chromatography (LC) separation was carried out with ACQUITY UPLC manufactured by Waters Corporation, and MS analysis (mass spectrometry) was carried out with Xevo G2 Tof MS manufactured by Waters Corporation. Acquity UPLC BEH C8 (2.1×100 mm, 1.7 μm) was used as a column for the LC separation. […]

[1] = 1 mg in 1 mL of water, filtered

Structure (SMILES) | peak area value derived from the compound through the LC-MS analysis (solubility test in water) [1] | water solubility (in words) (conclusion from LC-MS solubility test) | solubility at 5 min (thermodynamic from solid, from calibration curve and LC-MS signal intensity, 1 mg in 1 mL of water, sonicated, filtered) [µg/mL]
c1cc(-c2ccc(N3CCCC3)cc2)c2ccc3c(N4CC5CCCCC5C4)ccnc3c2n1 (stereo not shown) [Hid-PrdPPhen, 4-(2,3,3a,4,5,6,7,7a-octahydro-1H-isoindol-2-yl)-7-[4-(I-pyrrolidinyl)phenyl]-1,10-phenanthroline] | failed to be obtained |  | 
c1cc(-c2ccc(N3CCCC3)cc2)c2ccc3c(-c4ccc(N5CCCC5)cc4)ccnc3c2n1 [PrdP2Phen, 4,7-bis[4-(1-pyrrolidinyl)phenyl]-1,10-phenanthroline] | failed to be obtained |  | 
c1cc(N2CCCC2)c2ccc3c(N4CCCC4)ccnc3c2n1 [Pyrrd-Phen, 4,7-di-1-pyrrolidinyl-1,10-phenanthroline] |  | high water solubility | 59 (≈ 185 µM)
